Data on 39 compounds can be found in ChEMBL document CHEMBL3879887, “Aminocyclohexyl ether compounds and uses thereof” (2007).

Molecules are shown by their SMILES.

For the first series, the system named is Rattus norvegicus. Put plainly: Antiarrhythmic activity in iv dosed Sprague-Dawley rat coronary artery occlusion model administered via infusion for 5 mins starting 15 post surgery followed by coronary artery occlusion measured for 15 mins by electrocardiogram. It counts as functional.
Conditions: not given
One may read the ED50 as the dose at which the effect has come halfway, by size or by number of responders. A lower ED50 goes with an effect at a small dose. For the compound `COc1ccc(CCOC2CCCCC2N2CCCC2)cc1OC.Cl` (stereo not drawn), the median effective dose (ED50) lay in the range of 1.33 to 2.4 µmol/kg/min.

The subject of a further series is Canis familiaris. Kind of series: Inhibition of atrial fibrillation in iv dosed Mongrel dog vagal-atrial fibrillation model administered via infusion pump over 5 mins by electrophysiological method. It is filed as functional, Canis lupus familiaris.
Conditions: not given
`O=C(NCC1CCCCN1)c1cc(OCC(F)(F)F)ccc1OCC(F)(F)F` (stereo not drawn) [FLECAINIDE] registered an ED of 1 to 10 µmol/kg.

Test system in a further series: not listed separately
Kind of series: Neurotoxicity in iv dosed Sprague-Dawley rat assessed as minimum infusion rate of the compound require for partial and complete convulsion. It is filed as toxicity, organism-based. The settings on record: in vivo.
Consider `COc1ccc(CCOC2CCCCC2N2CCCC2)cc1OC.Cl` (stereo not drawn), for which the Activity lay in the range of 8 to 21.3 µmol/kg/min.
On to `COc1ccc(CCO[C@H]2CCCCC2N2CC[C@H](OCc3ccccc3)C2)cc1OC.Cl` (stereo partly drawn), for which the Activity is 8 µmol/kg/min.

Test system in another series: not listed separately
Put plainly: Neurotoxicity in iv dosed Sprague-Dawley rat assessed as total amount of drug infused at the point that partial or complete convulsions are first observed. It counts as toxicity, organism-based. The settings on record: in vivo.
`COc1ccc(CCOC2CCCCC2N2CCCC2)cc1OC.Cl` (stereo not drawn): the Activity lay within 44.4 to 118 µmol/kg.

Test system in another series: not listed separately
Kind of series: Therapeutic index, ratio of neurotoxicity in iv dosed Sprague-Dawley rat assessed as total amount of drug infused at the point that partial or complete convulsions are first observed to 20 times ED50 for antiarrhythmic activity in iv dosed Sprague-Dawley rat coronary artery occlusion model. The conditions noted are these: Sprague-Dawley, in vivo, read-out: TI. It counts as organism-based.
For `O[C@@H]1CCN(C2CCCC[C@@H]2OCCc2cc3ccccc3o2)C1` (stereo partly drawn), the selectivity ratio was determined as 3.3.
The same measure, in the same setting: to `COc1ccc(CCCCO[C@H]2CCCCC2N2CCOCC2)cc1OC` (stereo partly drawn) belongs 2.2; to `COc1ccc(CCOC2CCCC[C@H]2N2CCN(C(=O)Cc3ccc(OC)c(OC)c3)CC2)cc1OC` (stereo partly drawn), 11.1; to `COc1ccc(CCO[C@H]2CCCCC2N2CC[C@@H](OCc3ccccc3)C2)cc1OC` (stereo partly drawn), 2.6.
`COc1ccc(CCO[C@H]2CCCCC2N2CC[C@H](OC(C)=O)C2)cc1OC` (stereo partly drawn): the selectivity ratio was 2.
`Clc1cccc(Cl)c1CCOC1CCCC[C@H]1N1CCSC1` (stereo partly drawn): the selectivity ratio was 2.5.
Turning to `c1ccc2c(CCO[C@H]3CCCCC3N3CCOCC3)cccc2c1` (stereo partly drawn), the selectivity ratio is 4.7.
Consider `COc1ccc(CCO[C@@H]2CCCC[C@H]2N2CC[C@@H](OC(C)=O)C2)cc1OC`, for which the selectivity ratio was 1.8.
For the compound `O=C1CCN(C2CCCC[C@@H]2OCC(c2ccccc2)c2ccccc2)C1` (stereo partly drawn), the selectivity ratio turned out to be 3.1.
In the case of `Clc1ccc(CCO[C@H]2CCCCC2N2CCOCC2)cc1Cl` (stereo partly drawn), the selectivity ratio is 3.9.
`O=C1CCN(C2CCCC[C@@H]2OCCc2c(Cl)cccc2Cl)C1` (stereo partly drawn): the selectivity ratio amounted to 8.6.
For the compound `OC1CCN(C2CCCC[C@@H]2OCCc2ccccc2Br)C1` (stereo partly drawn), the selectivity ratio is 8.4.
Turning to `Brc1ccc(CCO[C@H]2CCCCC2N2CCOCC2)cc1` (stereo partly drawn), the selectivity ratio stood at 2.2.
For `COc1ccc(CCOC2CCCC[C@H]2N2CCC(=O)C2)cc1OC` (stereo partly drawn), the selectivity ratio was found to be 2.6.
For `Clc1cccc(Cl)c1COC1CCCC[C@H]1N1CCOCC1` (stereo partly drawn), the selectivity ratio worked out at 2.7.
For `CC(=O)OC1CCN([C@@H]2CCCCC2OCCc2cccc3ccccc23)C1` (stereo partly drawn), the selectivity ratio came out at 2.3.
Consider `OC1CCN(C2CCCC[C@@H]2OCCc2c(Cl)cccc2Cl)C1` (stereo partly drawn), for which the selectivity ratio was 5.4.
In the case of `c1ccc2c(CCO[C@H]3CCCCC3N3CCOCC3)csc2c1` (stereo partly drawn), the selectivity ratio is 3.3.
Regarding `OC1CCN(C2CCCC[C@@H]2OCCn2ccc3ccccc32)C1` (stereo partly drawn), the selectivity ratio turned out to be 9.4.
As to `Brc1ccccc1CCO[C@H]1CCCCC1N1CCOCC1` (stereo partly drawn), the selectivity ratio turned out to be 6.3.
Take `O[C@@H]1CCN(C2CCCC[C@@H]2OCCc2ccccc2C(F)(F)F)C1` (stereo partly drawn): the selectivity ratio came out at 7.3.
Take `COc1ccc(CCOC2CCCC[C@H]2N2CCC(F)C2)cc1OC` (stereo partly drawn): the selectivity ratio came out at 2.3.
Still for that read-out and setting: to `c1ccc2cc(CCO[C@H]3CCCCC3N3CCOCC3)ccc2c1` (stereo partly drawn) belongs 5.3; to `c1ccc2cc(OCCO[C@H]3CCCCC3N3CCOCC3)ccc2c1` (stereo partly drawn), 1.5.
Turning to `Brc1ccc(OCCO[C@H]2CCCCC2N2CCOCC2)cc1` (stereo partly drawn), the selectivity ratio came out at 1.4.
The same measure, in the same setting: in the case of `COc1ccc(CCO[C@H]2CCCCC2N2CCC[C@@H]2CO)cc1OC` (stereo partly drawn) it was 8.9.
For `COc1ccc(CCO[C@H]2CCCCC2N2CCC3(C2)OCCO3)cc1OC` (stereo partly drawn), the selectivity ratio was 2.9.
Take `COc1cc(CCCO[C@H]2CCCCC2N2CC[C@@H](O)C2)cc(Cl)c1OC` (stereo partly drawn): the selectivity ratio was 7.6.
On to `c1cc(CCO[C@H]2CCCCC2N2CCOCC2)c2ccsc2c1` (stereo partly drawn), for which the selectivity ratio is 2.7.
On the same count and under the same terms, to `COc1ccc(CCOC2CCCCC2N2CCCC2)cc1OC.Cl` (stereo not drawn) belongs 0.9 to 4.4; to `O=C1CCN([C@@H]2CCCCC2OCc2c(Cl)cccc2Cl)C1` (stereo partly drawn), 5.1.
On the same count and under the same terms, to `Brc1cccc(CCO[C@H]2CCCCC2N2CCOCC2)c1` (stereo partly drawn) belongs 3.3.
As for `COc1ccc(CCO[C@H]2CCCCC2N2CC[C@H](OCc3ccccc3)C2)cc1OC.Cl` (stereo partly drawn), the selectivity ratio worked out at 3.8.
On the same count and under the same terms, in the case of `FC(F)(F)c1ccccc1CCO[C@H]1CCCC[C@H]1N1CCOCC1` (racemic) it was 3.6.

Staying with this series, now noted: in vivo.
`Cl.OC1CCN(C2CCCC[C@@H]2OCCc2cccc3ccccc23)C1` (stereo partly drawn): the TI was found to be 4.3.
`Cl.OC1CCN([C@@H]2CCCC[C@@H]2OCCc2cccc3ccccc23)C1` (stereo partly drawn): the TI is listed as 8.8.
On to `COc1ccc(CCO[C@H]2CCCCC2N2CCOCC2)cc1OC` (stereo partly drawn), for which the TI is 1.4.
For the compound `COc1ccc(CCOC2CCCC[C@H]2N2CCOCC2)cc1OC.Cl` (stereo partly drawn), the TI is 3.8.
